Consider 6 compounds from patent US10759798B2, “ABT-199 addition salt and crystal form thereof, preparation method thereof, and pharmaceutical composition thereof” (Hangzhou SoliPharma Co., Ltd, priority 2016, dated 2020).

Entries after “also recorded” stand apart in the source; their conditions may differ. Where a name gives a salt, the structure may show the parent alone.

A short description of data set [1]: Water solubility test (Comparative Example 4). It is filed as physicochemical. Particulars: 25° C. As for the experimental part: The ABT-199 dihydrochloride Form 1 prepared by the invention and the known ABT-199 hydrochloride Form II prepared according to the Preparation Example 2 were tested for water solubility. In specific, 10 mg sample was placed in a 20 mL glass bottle, and added with 10 mL deionized water at 25° C. to form a suspension, which was stirred for 24 hours at 25° C., filtered, and detected by HPLC, and the solubility of the sample in water was calculated.

Data set [2] can be described thus: Storage stability at room temperature and 10%-90% RH for 4 months. The note with it: room temperature. The class given is physicochemical.
Data set [3] in a line: Water solubility test (Comparative Example 1). It is filed as physicochemical. The method, then:
The ABT-199 monohydrochloride Form A prepared in the present invention was compared with the known ABT-199 hydrochloride Form II prepared according to the Preparation Example 2 in a water solubility test. In specific, 10 mg sample was placed in a 50 mL glass bottle, and added with 10 mL deionized water dropwisely at 25° C. to form a suspension. The suspension was treated with ultrasonics until the suspension was stirred for 24 hours and the sample was almost dissolved, the resultant solution was filtered and subject to HPLC detection, and the sample solubility in water was calculated.

A short description of data set [4]: Crystalline stability at 130° C. for 1 day by XRPD (Comparative Example 2). It is filed as physicochemical. Particulars: for crystalline form after being stored at 130° C. for 1 day: XRPD. The method, then:
The ABT-199 monohydrochloride Form B prepared by the present invention was compared with the known ABT-199 hydrochloride Form II prepared according to the Preparation Example 2. In specific, 30 mg samples were placed at 130° C. for 1 day, and XRPD was carried out to investigate the crystalline stability.

Data set [5] can be described thus: Slurry competition experiment for crystalline form stability (Comparative Example 3). It is filed as physicochemical. Particulars: for crystalline form in slurry competition experiment: water-saturated ethyl acetate, 3 days, room temperature or 40° C. As for the experimental part:
The ABT-199 monohydrochloride Form C prepared by the invention and the known ABT-199 hydrochloride Form II prepared by Preparation Example 2 were used for the competition experiment to test the crystalline form stability. In specific, 20 mg ABT-199 Form II and 20 mg ABT-199 monohydrochloride Form C samples were added to the same water-saturated ethyl acetate to form slurries, which were stirred for 3 days at room temperature or at 40° C., then the samples were analyzed by XRPD to investigate their crystalline form stability.

For data set [6] the following is noted: cited from earlier work.
Where [7] appears, read: slurry of Form II and Form C in water-saturated ethyl acetate, XRPD.

The compound `CC1(C)CCC(CN2CCN(c3ccc(C(=O)NS(=O)(=O)c4ccc(NCC5CCOCC5)c([N+](=O)[O-])c4)c(Oc4cnc5[nH]ccc5c4)c3)CC2)=C(c2ccc(Cl)cc2)C1` [ABT-199 dihydrochloride Form 1] came in with a solubility at 24 h in data set [1] (thermodynamic from solid, deionized water, stirred 24 hours, HPLC) of about 50 µg/mL. The “solubility in water compared with known ABT-199 hydrochloride Form II” value in data set [1] is on record as “higher solubility”; in data set [1] (listed as Form 1), “higher”. Besides, the “appearance, XRPD pattern and melting point after storage” value (from here on “appearance … after storage”) in data set [2] (listed as Form 1) was “remains unchanged”.

Consider `CC1(C)CCC(CN2CCN(c3ccc(C(=O)NS(=O)(=O)c4ccc(NCC5CCOCC5)c([N+](=O)[O-])c4)c(Oc4cnc5[nH]ccc5c4)c3)CC2)=C(c2ccc(Cl)cc2)C1.Cl` [ABT-199 hydrochloride Form II, reference compound], for which the solubility entry in data set [3] (deionized water, 25° C., 24 hours, HPLC) is “About 20 μg/mL”; in data set [1] (deionized water, stirred 24 hours, HPLC), “About 20 μg/mL”. Further, the “solubility in water (in words)” value in data set [3] (water) is listed as “low solubility in water”. In addition, the “crystalline form after being stored at 130° C. for 1 day” value (“crystalline form after being stored” below) in data set [4] (130° C., 1 day, listed as ABT-199 monohydrochloride Form II) was “changes; also recorded: Phase transition occurred”. The “stability at high temperature (in words)” value in data set [4] (high temperature) was “poor stability at high temperature”. For the same compound, the “crystalline form after stirring at 40° C. for 3 days” value in data set [5] (setting [7]) was “Convered to Form C”. In addition, the “crystalline form in slurry competition experiment” value in data set [5] was “changed to Form C”; in data set [5] (listed as ABT-199 monohydrochloride Form II), “converted to Form C”.

`CC1(C)CCC(CN2CCN(c3ccc(C(=O)NS(=O)(=O)c4ccc(NCC5CCOCC5)c([N+](=O)[O-])c4)c(Oc4cnc5[nH]ccc5c4)c3)CC2)=C(c2ccc(Cl)cc2)C1` [ABT-199 hydrochloride Form I]: the “stability when exposed to air” value in data set [6] is on record as “easily converted to ABT-199 hydrochloride Form II”.

In data set [3] (thermodynamic from solid, deionized water, 25° C., 24 hours, HPLC), `CC1(C)CCC(CN2CCN(c3ccc(C(=O)NS(=O)(=O)c4ccc(NCC5CCOCC5)c([N+](=O)[O-])c4)c(Oc4cnc5[nH]ccc5c4)c3)CC2)=C(c2ccc(Cl)cc2)C1` [ABT-199 monohydrochloride Form A] came in with a solubility at 24 h of about 40 µg/mL. In addition, the “solubility in water compared with known ABT-199 hydrochloride Form II” value in data set [3] (water, 25° C.) is given as “higher solubility”. Also, the “appearance … after storage” value in data set [2] (listed as Form A) was “unchanged”.

As to `CC1(C)CCC(CN2CCN(c3ccc(C(=O)NS(=O)(=O)c4ccc(NCC5CCOCC5)c([N+](=O)[O-])c4)c(Oc4cnc5[nH]ccc5c4)c3)CC2)=C(c2ccc(Cl)cc2)C1` [ABT-199 monohydrochloride Form B], in data set [4] (130° C., 1 day), the “high-temperature stability compared with known ABT-199 hydrochloride Form II” value is “better high-temperature-stability” and the “crystalline form after being stored” value was “Form B”. Besides, the “crystalline form after being stored” value in data set [4] (130° C., 1 day, listed as Form B) is reported as “does not change”. Further, the “appearance … after storage” value in data set [2] (listed as Form B) was “remains unchanged”.

As to `CC1(C)CCC(CN2CCN(c3ccc(C(=O)NS(=O)(=O)c4ccc(NCC5CCOCC5)c([N+](=O)[O-])c4)c(Oc4cnc5[nH]ccc5c4)c3)CC2)=C(c2ccc(Cl)cc2)C1` [ABT-199 monohydrochloride Form C], the “crystalline form after stirring at 40° C. for 3 days” value in data set [5] (setting [7]) is “Form C”. For the same compound, the “crystalline form after stirring at room temperature for 3 days” value in data set [5] (slurry of Form II and Form C in water-saturated ethyl acetate, room temperature, XRPD) was “Form C”. Besides, the “crystalline form in slurry competition experiment” value in data set [5] is “remains unchanged”. Moreover, the “appearance … after storage” value in data set [2] (listed as Form C) is “remains unchanged”.
